Laboratory results reported in patent publication US6949584B2, “TNP-470 species, polymer conjugates and use thereof” (Children's Medical Center Corporation, priority 2002, dated 2005).
Where “and” joins values, the source holds several entries; their conditions need not be identical. Equal values may be shown once. Entries after “also recorded” stand apart in the source; their conditions may differ.

Columns and labels:
[1] = clinical pharmacokinetics, in words; cited from earlier work
[2] = tested on: chick aortic ring; experiment: Chick aortic ring endothelial sprouting assay; type: cell-based; details: Matrigel
Protocol: Aortic arches were dissected from day-14 chick embryos, cut into cross-sectional fragments, and implanted in vitro in Matrigel using a modification of methods previously described (V. Muthukkaruppan, personal communication). When cultured in MCDB-131 medium supplemented with 5% fetal bovine serum, endothelial cells sprouted and vascular channel formation occurred within 24-48 hours.

[3] = tested on: liver regeneration; experiment: Hepatectomy (liver regeneration) model; type: in vivo, C57BL/6J mice; details: for average liver size on post-operative day 8: 30 mg/kg q.o.d. s.c., controls regenerate to ~1.2 g
Protocol: Male C57BL/6J mice underwent a partial hepatectomy through a midline incision after general anesthesia with isoflourane^33. Free or conjugated TNP-470 (30 mg/kg) were given s.c. every other day for 8 days beginning on the day of surgery according to the scheme described in FIG. 4a. Alternatively, the doses given were 60 mg/kg the day of surgery and 4 days later or 120 mg/kg once on the day of the partial hepatectomy. The liver was harvested on the 8th day, weighed and analyzed by histology.
This non-neoplastic model is a relatively fast (8 days) in vivo angiogenesis-dependent process^33.

[4] = tested on: A2058 human melanoma; experiment: Antitumor activity, SCID mice bearing s.c. A2058 human melanoma; type: in vivo; details: for T/C (mean tumor volume treated / untreated control) / survival: 30 mg/kg TNP-470 equivalent
Text: Each group consisted of 5 mice. […] 500 mm^3.

[5] = tested on: LLC; experiment: Antitumor activity, C57BL/6J mice bearing s.c. LLC; details: for survival: 30 mg/kg q.o.d. TNP-470 equivalent; for T/C: day 8, treatment started at 500 mm^3; for tumor growth inhibition: day 8, 30 mg/kg q.o.d., treatment started at 100 mm^3
Text: Male C57BL/6J mice (˜8 weeks, ˜20 g) were inoculated with 5×10^6 viable LLC or A2058 melanoma cells s.c. The tumors were allowed to grow to a volume of approximately 100 mm^3. […] Each group consisted of 5 mice. Mice were euthanized when tumors reached or surpassed a size equivalent to 30% of their body weight. Animals were weighed daily and observed for signs of tumor progression and euthanized if their body weight decreased below 80% of their starting weight. Animals were monitored for general health, weight loss, and tumor progression. At termination, mice underwent post-mortem examination and tumors were dissected and weighed. […] The same dosing schedule was repeated with white SCID male mice (˜8 weeks, 20 g) inoculated with 5×10^6 viable A2058 human melanoma cells s.c. and treated as described above.

[6] = target: cathepsin B (Homo sapiens, UniProt P07858); details: incubation with cathepsin B, pH 5.5, 37° C.
Text: These conditions imitate the lysosomal environment in endothelial cells where lysosomal enzymes, such as cathepsin B, are present.

[7] = tested on: A2058 melanoma cells; experiment: Serum-induced A2058 cell proliferation
Protocol: The dotted line represents the proliferation of bFGF-induced BCE or serum-induced A2058 cells (—) and the […] represents the BCE and A2058 cell proliferation in the absence of bFGF or serum, respectively ( - - - ).
BCE cells were obtained and grown as previously described^48. For the proliferation assay, cells were washed with PBS and dispersed in a 0.05% trypsin solution. […] The media was replaced with 0.25 ml of DMEM, 5% BCS and 1% GPS and the test sample applied. […] After 30 min of incubation, media and bFGF were added to obtain a final volume of 0.5 ml of DMEM, 5% BCS, 1% GPS and 1 ng/ml bFGF. Control cells were grown with or without bFGF. After 72 hr, cells were dispersed in trypsin, resuspended in Hematall (Fisher Scientific, Pittsburgh, Pa.), and counted in a Coulter counter.

[8] = in vivo; details: male, C57BL/6J, mouse, 30 mg/kg
[9] = tested on: LLC; details: at doses of 60 and 90 mg/kg/q.o.d., stated as known; cited from earlier work
[10] = tested on: murine, human and metastatic tumors; details: cited from earlier work
[11] = Water solubility
[12] = Early mouse development; details: injected into 7 and 17 day-old mice
[13] = Rotorod test and body weight, 5 weeks treatment
[14] = in mice, mostly 30 mg/kg subcutaneously every other day
[15] = 30 mg/kg q.o.d. s.c. for 5 weeks

Molecule: COc1cccc2c1C(=O)c1c(O)c3c(c(O)c1C2=O)C[C@@](O)(C(=O)CO)C[C@@H]3O[C@H]1C[C@H](N)[C@H](O)[C@H](C)O1 [doxorubicin]
- t1/2a [1]: a few minutes

Molecule: HPMA copolymer-Gly-Phe-Leu-Gly (SEQ ID NO: 1)-ethylenediamine-TNP-470 [HPMA copolymer-TNP-470]
- concentration that completely prevented outgrowth [2]: 100 pg/mL
- concentration that reduced the number and length of vascular sprouts [2]: 50 pg/mL
- average liver size on post-operative day 8 [3]: 0.7 g
- inhibition of liver regeneration ([3]; 30 mg/kg/q.o.d s.c.): inhibited liver regeneration
- inhibition of liver regeneration ([3]; 60 mg/kg every four days, listed as Conjugated TNP-470): inhibited liver regeneration
- inhibition of liver regeneration ([3]; 60 mg/kg every four days, listed as HPMA copolymer-TNP-470 conjugate): equivalent effect as the 30 mg/kg q.o.d. dosing schedule
- inhibition of liver regeneration ([3]; single injection of 120 mg/kg on the day of hepatectomy, listed as Conjugated TNP-470, 120 mg/kg): inhibited liver regeneration
- inhibition of liver regeneration ([3]; single injection of 120 mg/kg on the day of hepatectomy, listed as HPMA copolymer-TNP-470 conjugate, 120 mg/kg): equivalent effect as the 30 mg/kg q.o.d. dosing schedule
- T/C (mean tumor volume treated / untreated control) [4]: 0.12
- survival [4]: increased survival
- T/C values for the conjugate ([4]; summary statement in the conclusions, model not named): 0.12-0.14
- survival [5]: increased survival
- T/C ([5]; 30 mg/kg/q.o.d): 0.4
- T/C ([5]; 60 mg/kg/q.o.d): 0.4
- T/C ([5]; 90 mg/kg/q.o.d): 0.24
- tumor growth inhibition [5]: 86%
- time until TNP-470 release from the conjugate reached a plateau [6]: ≤ 5 h

Molecule: CO[C@@H]1[C@H](OC(=O)NC(=O)CCl)CC[C@]2(CO2)[C@H]1[C@@]1(C)O[C@@H]1CC=C(C)C [TNP-470, O-(chloracetyl-carbamoyl) fumagillol]
- concentration that completely prevented outgrowth [2]: 100 pg/mL
- concentration that reduced the number and length of vascular sprouts [2]: 50 pg/mL
- average liver size on post-operative day 8 [3]: 0.7 g
- inhibition of liver regeneration ([3]; 30 mg/kg/q.o.d s.c.): inhibited liver regeneration
- inhibition of liver regeneration ([3]; 60 mg/kg every four days): did not inhibit liver regeneration
- inhibition of liver regeneration ([3]; single injection of 120 mg/kg on the day of hepatectomy, 120 mg/kg): did not inhibit liver regeneration
- T/C (mean tumor volume treated / untreated control) [4]: 0.34
- survival [4]: increased survival
- survival [5]: increased survival
- tumor growth inhibition [5]: 67%
- concentration at which inhibition of serum-induced proliferation (cytostatic effect) begins ([7]; 72 h): ≥ 10 ng/mL
- doses with cytotoxic effect ([7]; 72 h): higher than 100 μg/ml
- potency on endothelial cells relative to tumor cells ([7]; BCE versus A2058 / tumor cells): 4 logs and 3 logs
- TNP-470 in serum (after the 2 h time point): no detectable
- free TNP-470 concentrations in tumor specimens (any sample time point): no detectable concentrations
- concentration at 1 h [8]: 0.9 ng/mL
- concentration at 2 h [8]: 1.7 ng/mL
- toxicity to the mice [9]: toxic
- inhibition of growth of human tumors [10, 14]: up to 100%
- inhibition of growth of metastatic tumors [10, 14]: up to 100%
- inhibition of growth of murine tumors ([10]; mostly 30 mg/kg subcutaneously every other day): up to 91%
- body weight of animals receiving the drug ([10]; with few exceptions): weight loss or failure to gain weight
- water solubility [11]: not water-soluble
- effect on normal development (weight gain) of newborn mice [12]: causes delay in newborn mice development; also recorded: inhibited growth
- body weight [13, 15]: lost weight
- time remaining on the rotating rod [13, 15]: significantly shorter times
- neurohistological alterations ([13]; data not shown): no visible neurohistological alterations
